From patent US10471025B2, “Compositions for use in treating parkinson's disease and related disorders” (Technophage, Investigação E Desenvolvimento Em …, priority 2015, dated 2019)
Where “and” joins values, the source holds several entries; their conditions need not be identical. Equal entries are not always repeated. Entries after “also recorded” stand apart in the source; their conditions may differ. Structures can show the parent of a compound that is named as a salt. Where two headings read alike, the source gives them in different places.

Columns and labels:
healthy wild type mice = test: Toxicity assay, welfare and necropsy (Example 6); details: 24 h
Procedure: Their behavior was evaluated with open field tests for 1 h after i.p. injection. After 24 h, animals were sacrificed and necropsy was performed
9 week old NMRI female mice were used for this assay. Animals were tested for their welfare after two intraperitoneal injections of the test agents using the open field test. Necropsy was done after cervical dislocation. […] Benserazide at 12 mg/kg was administered 30 minutes prior to administration of these compounds, in all groups. Saline was given to the control group.
After benserazide administration, animals were monitored in the open field for 30 minutes for habituation. […] 24 hours after administration of the compounds, the animals were sacrificed and necropsy performed.
For administration of the various agents to the animals, two 700 ? L injections were administered 30 minutes apart.

6-OHDA mouse model [1] = test: Cylinder test, 6-OHDA mice (Example 5); assay type: in vivo
[2] = test system: 6-OHDA treated zebrafish larvae; test: LD50 / lethality in the disease context of the zebrafish model
[3] = cited from earlier work
mouse = details: cited from earlier work
[4] = test system: 6-OHDA treated zebrafish larvae; test: Freezing (duration of freezing periods, light/dark stimulus) in 6-OHDA zebrafish larvae; assay type: in vivo; details: tapentadol 48.5, stavudine 50, nabumetone 0.91 μM; L-Dopa treatment
Procedure: In the zebrafish model, the locomotor impairment was measured and related with bradykinesia in patients. Tests included evaluating ‘freezing_ in response to a light/dark stimulus. 6-OHDA induced larvae had fewer freezing episodes but spent longer periods in the frozen state. In previous studies, the duration of freezing episodes has been analyzed in PD patients. […] Nonetheless, it is an inhibitor of the neuronal dopamine transporter and since 6-OHDA needs DAT to enter the neuron and induce the disease, methylphenidate may be a false positive.
As FIGS. 9B-9C show, freezing recovery was tested using 7 candidate molecules at optimal concentrations, in an exemplary experiment with n=8 fish, and methylphenidate and amantadine at 25 ? M.

[5] = storage below 25 éC; cited from earlier work
[6] = cited from earlier work; remark: listed apart in the source
[7] = test system: 6-OHDA treated zebrafish larvae; test: Locomotor behavior rescue (total distance moved, number of jumps) in 6-OHDA zebrafish PD model; assay type: in vivo
Excerpt: To model Parkinson ̆s disease (PD), a neurotoxin 6-OHDA (6-hyroxydopamine) based method was used in zebrafish and in mice. In this model, 6-OHDA-lesions induce motor manifestations in zebrafish and in mice, such as reduced locomotor ability, and the loss of dopaminergic neurons. Based on the 6-OHDA PD zebrafish model, compounds from a small molecules library were screened for rescue of the parkinsonian phenotype (Example 1, see below).
The screen was based on both the recovery of impaired locomotor behavior and dopaminergic neuronal loss.
Values were normalized for the mean of disease state in each experiment (disease=1). Each plot contains data from 3 independent experiments with a total of 24 larvae. As a control, zebrafish were treated with only the vehicle, ascorbic acid.
For these experiments, Tubingen (TU) wild-type zebrafish, a specific strain of wild-type zebrafish, were used.

rat = details: cited from earlier work
[8] = test system: 6-OHDA treated zebrafish larvae; test: Co-administration with L-Dopa, total distance 6-OHDA larvae move; assay type: in vivo; details: hydrochloride; for Effect of co-administration with L-Dopa on locomotor recovery: total distance, L-Dopa 250 or 125 μM
[9] = cited from earlier work; remark: listed apart in the source
6-OHDA mouse model [10] = assay type: in vivo; details: for Gait test: maximum velocity, mean velocity, percentage of time resting or moving fast: tapentadol hydrochloride 8 or 15 mg/kg/day, hydrochloride
Procedure: That is, tapentadol hydrochloride C1 concentration dosage was increased to 8 mg/kg/day and tapentadol hydrochloride C3 concentration dosage was increased to 15 mg/kg/day. The gait test plan is illustrated in FIGS. 24A-24B.
To better observe the movement pattern of mice ̆s limbs, a new device was engineered similar to that used in a beam test, but with a closed corridor and a door. The apparatus was transparent with two home-cages at the extremities, one at the entrance that is transparent and another on the opposite end that is black. Each test was repeated 5 times and the 3 more consistent trials were selected for paw placement analysis. Data was recorded by 3 different cameras: on the bottom, top, and side of the corridor. Each camera allowed measurement of a different gait parameter. Specifically, the bottom camera allowed measurement, through the base of the support, of the hind paw distance and hind paw angle. The top camera allowed measurement of different parameters at distinct zones^—in the green area (most of the length of the apparatus), maximum and mean velocity, percentage of time resting/moving slow/moving fast, and time to the door were measured; the dark blue area provided a lag zone; and in the yellow area (area in front of the door), the permanence time before the door, mean velocity before the door, and latency to cross the door were measured. The side camera was used to analyze mice posture.

[11] = test system: 6-OHDA treated zebrafish larvae; test: Rescue of Tyrosine hydroxylase (TH)-positive dopaminergic neurons in 6-OHDA zebrafish larvae; assay type: in vivo
Procedure: The 7 candidates also were tested in terms of rescue of dopaminergic neurons positive for Tyrosine hydroxylase (Th) in the substancia nigra pars compacta of the test animals. […] Results were normalized for healthy control values (healthy control=100% of neurons). As a control, zebrafish were treated with only the vehicle, ascorbic acid. ‘6-OHDA_ represents results in zebrafish receiving no treatment.
FIGS. 6E-6G show representative Z-projections of confocal stacks of whole-mount anti-TH immunohistochemistry in 6 days post-fertilization (dpf) of zebrafish larvae (age of the fish) control (FIG. 6E), 6-OHDA (FIG. 6F), and tapentadol treated-larvae (FIG. 6G).

[12] = test system: cytochrome P450 (CY P) isoenzymes; details: cited from earlier work

For `CC[C@@H](c1cccc(O)c1)[C@@H](C)CN(C)C` [tapentadol, tapentadol hydrochloride], the Necropsy findings (healthy wild type mice; tapentadol C1 8.3 mg/kg in combination with L-Dopa) was “Two of the three animals treated with tapentadol C1 concentration had a slight hyperemia in the small intestine”, the Necropsy findings (healthy wild type mice; tapentadol C3 15 mg/kg in combination with L-Dopa) was “One of the three animals treated with tapentadol C3 concentration had an intestinal congestion” and the “Cylinder test: recovery over the parameters analyzed” value (6-OHDA mouse model [1]; concentration 1 (2.8 mg/kg/day), hydrochloride, 2.8 mg/kg/day) was “showed a recovery; also recorded: strongest recovery”. For the same compound, the “Cylinder test: recovery over the parameters analyzed” value (6-OHDA mouse model [1]; concentration 2 (0.9 mg/kg/day)) was “did not show significant recovery”, the LD50 ([2]; 6-OHDA disease-induced zebrafish larvae) was 8079 | M and the LD50 ([2]; 6-OHDA zebrafish larvae) was 8,079 μM. For the same compound, the Plasma protein binding ([3]; all species tested including humans) was 15-20%, the Plasma protein binding ([3]; plasma) was “approximately 20%” and the LD50 (mouse; intravenous administration, mice) was 47 mg/kg. The LD50 (mouse; oral administration, mouse) was 300 mg/kg, the LD50 (mouse; oral, mice) was 300 to 350 mg/kg and the “Duration of freezing periods, recovery vs 6-OHDA treated larvae” value [4] was “not recovered”. The Re-test period [5] was 30 months, the “Dose with exaggerated pharmacological effects” value ([6]; 52-week dog study, oral dosing) was 30 mg/kg and the “Dose groups with QT prolongation” value ([6]; dogs, hydrochloride) was 80 mg/kg and 120 mg/kg. The Therapeutic window ([7]; 6-OHDA zebrafish larvae) was 20 to 113 µM, the “Locomotor behavior rescue (total distance moved, number of jumps), confirmation of screen” value ([7]; 7 candidate molecules, 3 independent experiments) was “strong candidates” and the Optimal concentration ([7]; behavioral experiments and TH+ cell counts) was 48.5 µM. The “Total distance travelled, difference between treated larvae and disease control” value ([7]; tapentadol 48.5, stavudine 50, nabumetone 0.456 and 0.91 μM, n=8 fish) was ~200 mm, the “Number of jumps: concentration validated as recovering the 6-OHDA induced behavior” value ([7]; zebrafish, in vivo) was 56.25 µM and the LD50 (rat; intravenous administration, rats) was 45 mg/kg. For the same compound, the LD50 (rat; oral administration, rat) was 980 mg/kg, the “Tapentadol w L-Dopa: effectiveness with L-Dopa 250 relative to 125” value ([8]; co-administration with L-Dopa 250 vs 125, listed as Tapentadol HCl) was “less and equally” and the “Effect of co-administration with L-Dopa on locomotor recovery” value ([8]; listed as Tapentadol) was “not affected”. The “Effect of co-administration with L-Dopa on locomotor recovery” value ([8]; listed as tapentadol hydrochloride) was “the same or improved”, the “Absorption after oral administration” value ([9]; dog, mice, and rats) was “completely absorbed” and the Bioavailability ([9]; dogs and rats) was “low”. For the same compound, the Placenta-blood barrier crossing ([9]; in vivo) was “crosses the placenta-blood barrier, but to a lesser extent”, the “Gait test: all parameters measured” value (6-OHDA mouse model [10]; 21 dpi, L-Dopa ON period) was “no significant improvement” and the “Gait test: permanence time before the door, latency to cross the door, mean velocity before the door” value (6-OHDA mouse model [10]; 29 dpi, L-Dopa OFF period) was “behavioral recovery”. The “Gait test: maximum velocity, mean velocity, percentage of time resting or moving fast” value (6-OHDA mouse model [10]; 29 dpi, L-Dopa OFF period, listed as Tapentadol hydrochloride) was “behavioral recovery”, the “Gait test: maximum velocity, mean velocity, percentage of time resting or moving fast” value (6-OHDA mouse model [10]; 29 dpi, L-Dopa OFF period, listed as tapentadol hydrochloride) was “ameliorated” and the Neurorescue ([11]; TH+ neurons at optimal dose, p) was “Confirmed p < 0.055”. For the same compound, the “Neuroprotective effect / recovery of TH+ neurons” value ([11]; at the optimal concentration of each molecule, hydrochloride) was “confirmed; also recorded: recovery was observed” and the “Induction of CYP isoenzymes” value [12] was “no significant induction”.
